From US20210015834A1, “NK-1 ANTAGONISTS FOR USE IN THE TREATMENT OF OCULAR PAIN” (priority 2018, published 2021)

Key:
[1] = test system: mouse cornea nociception; assay: Measurement of cornea sensitivity, eye-wiping test (NaCl 5M); type: in vivo, mice; settings: for MPE increase, overall: three experiments; for MPE (maximal possible effect): one 10 μl drop
Source text: 8 week-old C57BL6/N (Charles-River, Italy) and B6.Cg-Tac1^tm1Bbm/J (SP-KO mouse, Jackson) male mice were used in all experiments. Carbon dioxide inhalation and subsequent cervical dislocation were applied to euthanize the animals. All experimental protocols were approved by the Animal Care and Use Committee of the IRCCS San Raffaele Scientific Institute, in accordance with the ARVO Statement for the Use of Animals in Ophthalmic and Vision Research.
Mice 8-week-old C57BL6/N (Charles-River, Italy) and B6.Cg-Tac1^tm1Bbm/J (Jackson) corneal sensitivity was measured with the eye wiping test^36. Briefly, animals were placed individually in an empty cage for 5 min to get acclimatized; one drop (10 μl) of NaCl 5M was put into the right eye of the animal and eye wipings with the ipsilateral forepaw were counted for 30 s. Subsequently, a drop (10 μl) of Fosaprepitant (2, 10 and 50 mg/mL, powder was weighted and dissolved in PBS to reach the desired final concentration, Ivemend, Merck Sharp & Dohme B.V), PBS, Diclofenac (0.1%, Dicloftil, Farmingea) or Oxybuprocaine chloride (4 mg/ml, Novesina, Laboratoire Thea) was put on the same eye and left for 3 min. […] Three experiments were performed, each with 8 mice per group. In a sub-group of experiments, cornea sensitivity was tested 24 hours after 10 days of topical treatment (10 μl) with 2 mg/mL Fosaprepitant (6 times/day).
Anti-nociceptive effect was calculated as maximal possible effect (% MPE or MPE %) for each mouse according to the following formula:
% MPE=100×(post-treatment wipe count−pre-treatment wipe count)/(0−pre-treatment wipe count).
Unpaired t-test was used to evaluate the differences in nociception after different treatments. A p value <0.05 was considered to be statistically significant. The statistical software GraphPad Prism 5.0 (GraphPad Software, La Jolla, Calif.) was used for all analyses. All data were expressed as mean±standard error of the means (SEM). All methods were performed in accordance with the relevant guidelines and regulations.

[2] = test system: ocular pain; assay: Subjective ocular pain score (0-10) in a treated patient; type: in vivo, human
Source text: (§1) One patient affected with Stage II (Foster) ocular cicatritial pemphigoid and intractable ocular pain was recruited on a compassionate trial of Fosaprepitant, upon administration and acceptance of informed consent, after consultation with the San Raffaele Hospital Ethics Committee. The patient reported the pain to be located on the ocular surface of both eyes and rated it 9/10 on the right eye and 2/10 on the left eye. Visual acuity was light perception in both eyes and the left eye presented a descemetocele. In the right eye the cornea presented diffuse punctate keratopathy, and conjunctival scarring. All the medications in use at time of enrollment were maintained. These included topical medications: tacrolimus 0.02% 3 times a day, dexamethasone phosphate twice a day, Timolol-brinzolamide drops twice a day, lubricants 6 times a day. In addition, the patient was taking systemic prednisone (25 mg); other systemic immunosuppressants had been previously tried to control the disease but had been suspended due to inefficacy or intolerance. In an unsuccessful attempt to control ocular pain, the prednisone dosage was raised up to 25 mg per day and the patient had been started 3 months before with opioid analgesic Tapentadol 50 mg bid and paracetamol 1000 mg tid. Only the right eye was treated. In this study, the patient received treatment with ocular Fosaprepitant 10 mg/mL (50 μl) 6 times/day for 30 days.
(§2) Different filament lengths were tried (starting from 60 mm, 5 mm intervals) until response, and noted. In order to quantify subjective ocular pain, the treated patient was asked to rate the pain felt in the treated eye on a scale from 0 (no pain) to 10 (worst possible pain) before and after the treatment^38.

[3] = test system: corneal sensitivity; assay: Corneal sensitivity, Cochet-Bonnet aesthesiometer, in a treated patient; type: in vivo, human
Source text: as §1
To test corneal sensitivity, a Cochet-Bonnet aesthesiometer (60 mm in length, 0.12 mm diameter) was used. The head of the subject was placed on the chinrest of the slit lamp, and the Cochet-Bonnet filament was neared the volunteer's eye with a perpendicular angle.
as §2

[4] = test system: ocular surface; assay: Gross signs of ocular surface toxicity in the human subject; type: in vivo; settings: topical Fosaprepitant 10 mg/ml 6 times a day for 30 days
Source text: as §1, with “In this study, the patient received treatment with ocular Fosaprepitant 10 mg/mL (50 μl) 6 times/day for 30 days.” left out

[5] = test system: cornea; settings: topical Fosaprepitant 10 mg/ml 6 times a day; cited from earlier work
[6] = test system: ocular surface; assay: Gross signs of ocular surface toxicity in mice; settings: topical Fosaprepitant
[7] = Fosaprepitant 10 mg/ml 6 times a day, after one month of treatment

SMILES: O=C(O)Cc1ccccc1Nc1c(Cl)cccc1Cl [Diclofenac]
- % MPE ([1]; Diclofenac 0.1% topical, p=0.0029 vs Fosaprepitant 10 mg/ml): 69.66%

SMILES: C[C@@H](O[C@H]1OCCN(Cc2nc(O)n(P(=O)(O)O)n2)[C@H]1c1ccc(F)cc1)c1cc(C(F)(F)F)cc(C(F)(F)F)c1 [Fosaprepitant, [3-{[(2R,3S)-2-[(1R)-1-[3,5-bis(trifluoromethyl)phenyl]ethoxy]-3-(4-fluorophenyl)morpholin-4-yl]methyl}-5-oxo-2H-1,2,4-triazol-1-yl]phosphonic acid]
- change of cornea sensitivity ([1]; Fosaprepitant 2 mg/ml 6 times a day for 10 days, compared to 10 days PBS instillation, p=0.0195): −31.4%
- reduction of cornea sensitivity ([1]; Fosaprepitant 2 mg/ml one time, topical): did not significantly reduce cornea sensitivity
- change of cornea sensitivity ([1]; Fosaprepitant 2 mg/ml, single shot vs 10 days treatment, p=0.0174): −27.1%
- reduction of nociception ([1]; Fosaprepitant 10 mg/ml single administration vs PBS, p=0.029): −28.1%
- maximum possible analgesic effect (MPE) ([1]; Fosaprepitant 10 mg/ml topical, p=0.0006 vs PBS): 44.52%
- corneal pain measured as eye wiping counts vs placebo ([1]; Fosaprepitant 50 mg/ml administered once, 30 minutes after administration): significantly reduces corneal pain
- maximum possible analgesic effect (MPE) ([1]; Fosaprepitant 50 mg/ml topical, p=0.0001 vs PBS): 52.62%
- MPE increase, overall ([1]; Fosaprepitant 50 mg/ml vs PBS, p<0.0001): 21.03 points
- MPE (maximal possible effect) ([1]; Fosaprepitant 50 mg/ml, first experiment, SD 14.6): 48.4%
- MPE (maximal possible effect) ([1]; Fosaprepitant 50 mg/ml, second experiment, SD 24.9): 43.2%
- MPE (maximal possible effect) ([1]; Fosaprepitant 50 mg/ml, third experiment, SD 16.6): 44.2%
- reduction of nociception ([1]; Fosaprepitant single administration, 10 mg/ml vs 2 mg/ml, p=0.0005): −23.1%
- lower effective concentration in reducing corneal pain ([1]; single administration): 10 mg/mL
- corneal sensitivity reduction, WT mice before vs after treatment ([1]; single administration of Fosaprepitant 10 mg/ml, p<0.0001): −47.9
- corneal pain score ([2]; Fosaprepitant 10 mg/ml 6 times a day, 2 hours after the first instillation, baseline 9/10): 0/10
- pain score [2, 7]: 0/10
- pain score ([2]; follow-up visit one month after study exit, not constant): 1/10
- Cochet Bonnet aesthesiometry ([3]; Fosaprepitant 10 mg/ml 6 times a day, 2 hours after the first instillation, baseline 60 mm): 50 mm
- Cochet Bonnet aesthesiometry, reduction [3, 7]: 50%
- corneal sensitivity ([3]; follow-up visit one month after study exit): 60 mm
- signs of ocular surface toxicity [4]: no gross signs of ocular surface toxicity
- signs of toxicity to the cornea [5]: did not show obvious signs of toxicity to the cornea
- signs of ocular surface toxicity [6]: no gross signs of ocular surface toxicity

SMILES: CCCCOc1cc(C(=O)OCCN(CC)CC)ccc1N [Oxybuprocaine]
- % MPE ([1]; Oxybuprocaine 4 mg/ml topical, p<0.0001 vs Fosaprepitant 10 mg/ml): 80.59%
- MPE difference, Oxybuprocaine higher than Fosaprepitant ([1]; Oxybuprocaine 4 mg/ml vs Fosaprepitant 50 mg/ml, p<0.0001): 35.89 MPE points
- MPE increase, overall ([1]; Oxybuprocaine 4 mg/ml vs PBS, p<0.0001): 56.92 points
- corneal pain measured as eye wiping counts vs placebo and Fosaprepitant ([1]; Oxybuprocaine 4 mg/ml, topical): significantly reduces corneal pain
- MPE (maximal possible effect) ([1]; oxybuprocaine chloride 4 mg/ml, first experiment, SD 9.7): 80.8%
- MPE (maximal possible effect) ([1]; oxybuprocaine chloride 4 mg/ml, second experiment, SD 13.9): 84.1%
- MPE (maximal possible effect) ([1]; oxybuprocaine chloride 4 mg/ml, third experiment, SD 10.9): 78.2%
